In ChEMBL document CHEMBL6120994, “Unravelling the potential of natural chelating agents in the control of Staphylococcus aureus and Pseudomonas aeruginosa biofilms” (Eur J Med Chem, 2025):
Values after ≈ are worked out from the molar mass of the structure shown. Active and inactive are the calls of the source. The rule behind the calls is not given here.

Legend:
Pseudomonas aeruginosa [1] = assay: Antibiofilm activity against Pseudomonas aeruginosa ATCC 10145 assessed as reduction in biomass production at 500 to 1000 ug/ml measured after 24 hrs by crystal violet staining method; format: functional, organism-based; conditions: dose 500-1000 µg/ml
Pseudomonas aeruginosa [2] = assay: Antibiofilm activity against Pseudomonas aeruginosa ATCC 10145 assessed as reduction in biofilm cells culturability by measuring reduction in number of CFU at 500 to 1000 ug/ml measured after 24 hrs by visual counting method; format: functional, organism-based; conditions: dose 500-1000 µg/ml
Pseudomonas aeruginosa [3] = assay: Antibiotic adjuvant activity against Pseudomonas aeruginosa ATCC 10145 assessed as ciprofloxacin MBC at 125 ug/ml measured after 24 hrs in presence of ciprofloxacin by checkerboard assay (reference value: 32 ug/ml); format: functional; conditions: dose 125 µg/ml
Staphylococcus aureus [4] = assay: Inhibition of virulence production in pre-established 24 hr-old Staphylococcus aureus CECT 976 biofilms assessed as diameter of protease halo at 1XMTC measured after 72 hrs (reference value: 12.3 to 13.3 mm); format: functional
Pseudomonas aeruginosa [5] = assay: Antibiofilm activity against Pseudomonas aeruginosa PAK01 biofilm assessed as reduction of bacterial biomass by crystal violet staining based analysis; format: functional
Staphylococcus aureus [6] = assay: Antibacterial activity against Staphylococcus aureus ATCC 6538 assessed as inhibition of bacterial growth measured after 24 hrs by broth microdilution method; format: functional
Staphylococcus aureus [7] = assay: Antibiofilm activity against Staphylococcus aureus CECT 976 assessed as reduction in biomass production at 500 to 1000 ug/ml measured after 24 hrs by crystal violet staining method; format: functional; conditions: dose 500-1000 µg/ml, at 500 to 1000 µg/mL
HepG2 = assay: Protection against iron(III)-induced cytotoxicity in human HepG2 cells assessed as cell mass at 250 to 750 ug/ml measured after 24 hrs by SRB binding assay (reference value: 56.2 +/-5.4%); format: functional; conditions: dose 250-750 µg/ml, at 250 to 750 µg/mL
Staphylococcus aureus [8] = assay: Antibiotic adjuvant activity against Staphylococcus aureus CECT 976 assessed as potentiation of tobramycin-induced antibiofilm activity by measuring reduction of CFU of biofilm cells at 500 ug/ml measured after 24 hrs in presence of 1/2X to 1/8XMIC tobramycin by visual counting method; format: functional; conditions: dose 500 µg/ml
Staphylococcus aureus [9] = assay: Inhibition of virulence production in Staphylococcus aureus CECT 976 biofilms assessed as diameter of protease halo at 1/2XMTC measured after 72 hrs in presence of 1/2XMIC tobramycin (reference value: 12.5 to 13.3 mm); format: functional
Staphylococcus aureus [10] = assay: Antibiofilm activity against Staphylococcus aureus ATCC 6538 assessed as reduction in biomass at 700 ug/ml measured after 48 hrs by crystal violet staining based analysis; format: functional
Pseudomonas aeruginosa [11] = assay: Antibiofilm activity against Pseudomonas aeruginosa ATCC 10145 assessed as reduction in metabolic activity of biofilm cells at 500 to 1000 ug/ml by resazurin staining based fluorescence analysis; format: functional, organism-based; conditions: dose 500-1000 µg/ml
Pseudomonas aeruginosa [12] = assay: Antibiotic adjuvant activity against Pseudomonas aeruginosa ATCC 10145 assessed as fractional inhibitory concentration index (MBC) at 125 ug/ml measured after 24 hrs in presence of ciprofloxacin by checkerboard assay; format: functional; conditions: dose 125 µg/ml
Staphylococcus aureus [13] = assay: Inhibition of virulence production in pre-established 24 hr-old Staphylococcus aureus CECT 976 biofilms assessed as diameter of protease halo at 10XMTC measured after 72 hrs in presence of 1XMIC tobramycin (reference value: 11.5 to 12 mm); format: functional
Staphylococcus aureus [14] = assay: Antibiotic adjuvant activity against preestablished 24 hr-old Staphylococcus aureus CECT 976 assessed as potentiation of tobramycin-induced antibiofilm activity by measuring reduction of biomass at 10000 ug/ml measured after 24 hrs in presence of 1/4XMIC to MIC tobramycin by crystal violet staining method; format: functional, organism-based; conditions: dose 10000.0 µg/ml
Acinetobacter baumannii = assay: Antibacterial activity against Acinetobacter baumannii assessed as inhibition of bacterial growth incubated for 16 hrs by broth microdilution method; format: functional
Staphylococcus aureus [15] = assay: Antibacterial activity against Staphylococcus aureus CECT 976 assessed as inhibition of bacterial growth by measuring inhibition zone diameter at 1000 ug/ml incubated for 24 hrs in presence of ciprofloxacin by disc diffusion method (reference value: 29.25 +/- 0.96 mm); format: functional; conditions: read-out: DIZ
Escherichia coli = assay: Antibacterial activity against Escherichia coli BNCC133721 assessed as inhibition of bacterial growth measured after 24 hrs by broth microdilution method; format: functional
Staphylococcus aureus [16] = assay: Antibiotic adjuvant activity against Staphylococcus aureus CECT 976 assessed as fold potentiation of tobramycin-induced antibiofilm activity by measuring reduction in biomass production at 500 ug/ml measured after 24 hrs in presence of 1/4XMIC tobramycin by crystal violet staining method relative to tobramycin treated control; format: functional; conditions: dose 500 µg/ml
Pseudomonas aeruginosa [17] = assay: Antibiofilm activity against Pseudomonas aeruginosa PAO1 biofilm assessed as reduction of bacterial biomass by crystal violet staining based analysis; format: functional
Staphylococcus aureus [18] = assay: Inhibition of virulence production in Staphylococcus aureus CECT 976 biofilms assessed as diameter of lipases halo at 1/2XMTC measured after 48 hrs in presence of 1/4XMIC tobramycin (reference value: 12.3 to 13.5 mm); format: functional
Staphylococcus aureus [19] = assay: Antibiotic adjuvant activity against preestablished 24 hr-old Staphylococcus aureus CECT 976 assessed as potentiation of tobramycin-induced antibiofilm activity by measuring reduction of biomass at 10000 ug/ml measured after 24 hrs in presence of 1/4XMIC tobramycin by crystal violet staining method; format: functional
Staphylococcus aureus [20] = assay: Antibacterial activity against Staphylococcus aureus assessed as inhibition of bacterial growth incubated for 24 hrs by broth microdilution method; format: functional
Pseudomonas aeruginosa [21] = assay: Antibacterial activity against Pseudomonas aeruginosa assessed as inhibition of bacterial growth incubated for 24 hrs by broth microdilution method; format: functional
Pseudomonas aeruginosa [22] = assay: Antibiotic adjuvant activity against Pseudomonas aeruginosa ATCC 10145 assessed as fractional inhibitory concentration index (MBC) at 15.6 ug/ml measured after 24 hrs in presence of ciprofloxacin by checkerboard assay; format: functional; conditions: dose 15.6 µg/ml
Staphylococcus aureus [23] = assay: Antibiotic adjuvant activity against preestablished 24 hr-old Staphylococcus aureus CECT 976 assessed as potentiation of tobramycin-induced antibiofilm activity by measuring log reduction of CFU of biofilm cells at 10000 ug/ml in presence of 1/4XMIC to MIC tobramycin measured after 24 hrs by visual counting method; format: functional; conditions: dose 10000 µg/ml
Pseudomonas aeruginosa [24] = assay: Antibiofilm activity against Pseudomonas aeruginosa ATCC 10145 assessed as reduction in biomass production at 500 ug/ml measured after 24 hrs by crystal violet staining method; format: functional
[25] = Cytotoxicity against human HepG2 cells assessed as cell mass at 375 to 500 ug/ml measured after 24 hrs by SRB binding assay; format: toxicity, cell-based; conditions: at 375 to 500 µg/mL, dose 375-500 µg/ml, read-out: Activity
Pseudomonas aeruginosa [26] = assay: Antibiofilm activity against Pseudomonas aeruginosa ATCC 10145 assessed as reduction in metabolic activity of biofilm cells at 1000 ug/ml by resazurin staining based fluorescence analysis; format: functional
Pseudomonas aeruginosa [27] = assay: Antibiofilm activity against preestablished 24 hr-old Pseudomonas aeruginosa ATCC 10145 assessed as reduction in biofilm cells culturability by measuring log reduction of CFU of biofilm cells at 10XMTC measured after 24 hrs by visual counting method; format: functional
Pseudomonas aeruginosa [28] = assay: Antibiofilm activity against Pseudomonas aeruginosa ATCC 10145 assessed as reduction in biomass production at 1000 ug/ml measured after 24 hrs by crystal violet staining method; format: functional
Staphylococcus aureus [29] = assay: Antibacterial activity against Staphylococcus aureus assessed as loss of intracellular content at 5000 ug/ml incubated for 4 hrs by transmission electron microscopy; format: functional; conditions: dose 5000 µg/ml

## O=c1cc(CO)occ1O [KOJIC ACID]
Pseudomonas aeruginosa [1]
  Activity: inactive
Pseudomonas aeruginosa [2]
  Activity: inactive
Pseudomonas aeruginosa [3]
  MBC: 32 µg/mL
Staphylococcus aureus [4]
  Activity: 3.5 mm
Pseudomonas aeruginosa [5]
  inhibition (INH): 5%
Staphylococcus aureus [6]
  MIC: 1400 µg/mL (≈ 9.85 mM)
Staphylococcus aureus [7]
  inhibition (INH): 26%
HepG2
  Activity: >61.8%
Staphylococcus aureus [8]
  Activity: 2 log10CFU/cm^-2
Staphylococcus aureus [9]
  Activity: 0 mm
Staphylococcus aureus [10]
  inhibition at 700 µg/mL: 40%
Pseudomonas aeruginosa [11]
  Activity: inactive
Pseudomonas aeruginosa [12]
  fractional inhibitory concentration index (FICI): 1
Staphylococcus aureus [13]
  Activity: 0 mm
Staphylococcus aureus [14]
  Activity: inactive
Acinetobacter baumannii
  MIC: 3410 µg/mL (≈ 24 mM)
Staphylococcus aureus [15]
  zone of inhibition at 1000 µg/mL: 30.8 mm
Escherichia coli
  Activity: >1000 µg/mL
Staphylococcus aureus [16]
  fold change (FC): 2.6
Pseudomonas aeruginosa [17]
  inhibition (INH): 27%
Staphylococcus aureus [18]
  Activity: 2 mm

## Cc1occc(=O)c1O [MALTOL]
Staphylococcus aureus [19]
  inhibition at 10000 µg/mL: 31%
Staphylococcus aureus [4]
  Activity: 3.5 mm
Staphylococcus aureus [20]
  MIC: 4000 µg/mL (≈ 31.7 mM)
Staphylococcus aureus [7]
  inhibition (INH): 26%
Staphylococcus aureus [9]
  Activity: 0 mm
Pseudomonas aeruginosa [21]
  MIC: 4000 µg/mL (≈ 31.7 mM)
Pseudomonas aeruginosa [22]
  fractional inhibitory concentration index (FICI): 1
Staphylococcus aureus [13]
  Activity: 0 mm
Staphylococcus aureus [23]
  Activity: 2 log10CFU/cm^-2
Pseudomonas aeruginosa [24]
  inhibition at 500 µg/mL: < 15%
[25]
  viability at 24 h: 68%
Pseudomonas aeruginosa [26]
  inhibition at 1000 µg/mL: 30%
Staphylococcus aureus [15]
  zone of inhibition at 1000 µg/mL: 33 mm
Pseudomonas aeruginosa [27]
  Activity: 3.1 log10CFU/cm^-2
Pseudomonas aeruginosa [28]
  inhibition at 1000 µg/mL: 40%
Staphylococcus aureus [29]
  Activity: 7.7%
Staphylococcus aureus [18]
  Activity: 2.3 mm
